These results are taken from paper PMC3871595, “Structure Based Identification and Characterization of Flavonoids That Disrupt Human Papillomavirus-16 E6 Function” (PLoS ONE, 2013).

The target of data set [1] is T1, interaction between HPV-16 E6 and E6AP (Human papillomavirus type 16, UniProt P03126).
T1 construct: made in house; host or cells: E. coli BL21
Put plainly: biochemical. The format is binding. The note with it: for activity and potency in E6/E6AP binding assay (in words): SAR library, initial 5-point dose range 12.3 µM to 1 mM; for Emax: read-out: Maximal Inhibition. Here is the method: To characterize potential E6 inhibitors, a robust in vitro assay was developed to measure the interaction between HPV-16 E6 and E6AP. […] The core 70 amino acids of the E6 binding region of E6AP (residues 371-440) was fused to bacterial alkaline phosphatase (BAP) in the MY101 vector [40]. […] Binding efficiency was determined from the intensity of BAP activated chemiluminescence remaining in each well.
Kinetic analysis was performed to characterize the protein-protein interaction inherent in this assay.
The collection of 72 available structural-lead compounds was tested in the filter-plate based in vitro E6-E6AP binding assay. […] Compounds that disrupted the Flag-BAP interaction with the same potency as the HPV-16 E6 and E6AP interaction were classified as non-specific and eliminated from further analysis. […]
(§1) Pre-Block - 96-well filter plates were prepared (0.2 µm BioTrace NT, Pall). 100µL of blocking buffer (100 mM Tris pH 8.0, 100 mM NaCl, 0.1% milk) was added per well. Plates were blocked for 1 hr at RT on an orbital shaker. Buffer was removed by vacuum filtration using a vacuum manifold. GST-E6 Bead addition – GST-E6 beads were prepared at 5µg/mL in GST-E6 bead buffer (100 mM Tris pH 8.0, 100 mM NaCl, 0.1% milk, 2.5 mM DTT). 100µL of GST-E6 bead mix was added per well and incubated for 1 hr at 4°C. Buffer was removed by vacuum filtration. […] 48 µL of each reagent was added per well. For drug assay, 2µL of compound was added to each well and mixed thoroughly. […] Plates were incubated for 1-3 hours at RT on an orbital shaker. Buffer was removed by vacuum filtration. Plates were washed on the vacuum manifold, first with 200 µL buffer (100 mM Tris pH 8.0, 100 mM NaCl, 1 mM DTT), and twice more with 100µL lysis buffer without DTT. Plates were cleared and dried with on the vacuum manifold. Assay – Immunostar assay reagent was prepared and equilibrated to RT prior to addition. 60 µL of Immunostar-AP assay reagent was added, the BAP activity was allowed to develop for 10 minutes and the plates were read on a Wallace Luminometer. BAP activity was measured as relative light units (RLU) on a luminometer using the Immunostar-AP substrate (BioRad).

The test system of data set [2] is interaction between anti-FLAG antibody and the FLAG epitope in the E6AP-BAP fusion. Put plainly: FLAG/BAP specificity filter binding assay. Here is the method: The collection of 72 available structural-lead compounds was tested in the filter-plate based in vitro E6-E6AP binding assay. Compounds were tested twice at concentrations of 10, 50, and 100 µM. […] Compounds that disrupted the Flag-BAP interaction with the same potency as the HPV-16 E6 and E6AP interaction were classified as non-specific and eliminated from further analysis.
Figure 3 Activity of flavonoids in the in vitro binding assay. Compounds were tested in vitro for the ability to disrupt the E6-E6AP interaction. […] Percent inhibition was determined by the amount of BAP activity remaining in the well after washing and normalized to DMSO. Data was plotted by linear regression for single site binding using Prism (n=3, S.E.M.).
(§2) This interaction between E6 and hDlg occurs at the C-terminus of E6 and is independent of the interaction between E6 and the charged leucine helix in E6AP [21, 22].

Data set [3] deals with T2, interaction between GST-E6 and three PDZ domains of hDlg fused to BAP (hDlg-BAP) (Human papillomavirus type 16, UniProt P03126).
T2 construct: made in house; host or cells: E. coli BL21
T2 sequence (P03126 whole entry, the tested form may be a part): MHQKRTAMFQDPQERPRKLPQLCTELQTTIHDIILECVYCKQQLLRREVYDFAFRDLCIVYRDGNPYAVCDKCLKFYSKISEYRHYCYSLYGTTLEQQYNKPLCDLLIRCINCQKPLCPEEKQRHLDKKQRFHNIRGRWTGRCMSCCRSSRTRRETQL
As to the kind of experiment: E6/hDlg-BAP specificity filter binding assay. More on the design: species or system HPV-16. How it is done: as §2
as §1, with “Plates were cleared and dried with on the vacuum manifold. Assay – Immunostar assay reagent was prepared and equilibrated to RT prior to addition.” left out

Data set [4] addresses T3, MBP-E6 (Human papillomavirus type 16, UniProt P03126).
T3 construct: made in house; host or cells: E. coli BL21DE(3)
As to the kind of experiment: thermal shift (Sypro Orange) assay. The note with it: versus DMSO; for effect on Tm of MBP-E6: 5-150 µM tested. The class given is binding, HPV-16. How it is done:
A thermal shift assay was used to assess compound binding to HPV E6. In this reaction, protein denaturation is measured by an increase in fluorescence from Sypro Orange as it binds to the newly exposed hydrophobic surfaces on the protein [48]. A protein stability curve is created as a measure of the rate of protein unfolding. The relative fluorescence is plotted against temperature and the melting temperature (Tm) is determined by calculating the temperature of peak fluorescence. Ligand binding can stabilize the protein and increase the Tm. The thermal profile of MBP-E6 proteins was investigated to determine if the flavonoid derivatives could stabilize MBP-E6 protein structure during heat-induced unfolding. […] The change in Tm (∆Tm) was plotted for each compound and compared to DMSO (Figure 10F,G ).
MBP-16E6 DNA, a kind gift from G. Travé [58], was transformed into BL21DE(3) E. coli. Protein expression was performed by inoculation of a 1 mL starter culture in 100 mL of Turbo-Broth containing 0.2 % lactose, 0.05% glucose and 0.6% glycerol at 20°C for 24 hrs. Cells were lysed in 50 mM Tris HCl pH 6.8, 300 mM NaCl, 0.1 % (v/v) NP-40, 2 mM DTT and 1x protease inhibitor cocktail (EDTA-free, Roche) and sonicated as described before. Cell lysate was cleared by centrifugation at 15000xg, 4°C for 30 min and equilibrated with amylose resin beads (New England Biolabs, Inc.) by inversion for 3 hrs at 4°C. Bound beads were washed one time in lysis buffer and four times with wash buffer (50 mM Tris-HCl pH 6.8, 400 mM NaCl, 2 mM DTT, 1x protease inhibitor cocktail). Bound MBP-E6 proteins were eluted using a final concentration of 20 mM maltose in 5 bed volumes of wash buffer. All steps were performed at 4°C. Protein concentration was measured by BCA (BioRad). Thermostability of MBP-E6 proteins was analyzed at a final concentration of 1 µM in reaction buffer (50 mM TrisHCl pH 6.8, 400 mM NaCl, 2 mM DTT). MBP-E6 proteins were equilibrated with CAF-8 (5 µM-150 µM), CAF-24 (5 µM-150 µM), CAF-26 (5 µM-150 µM) or DMSO for 30 min in reaction buffer. Sypro Orange, a hydrophobic fluorescent dye, was added at the end of the incubation period at a final concentration of 5X. The final DMSO concentration (1.8% v/v) was kept constant across the concentration range. Fluorescence was measured using the FRET channel of CFX96 Real-Time PCR thermal cycler (BioRad) over a temperature range of 25°C to 95°C. Temperature increments were set to 0.5°C for 30 sec followed by plate reading. Melt curves were determined in triplicate and repeated four times. Melt curves represent the relative fluorescence of the 1st derivative of four experiments. Melting temperature (Tm) was calculated by CFX manager software. The average melting temperature of the triplicate was used to calculate the ∆Tm for each experiment. ∆Tm values are expressed as the change vs. DMSO.

The nature of data set [5]: solubility in aqueous SPR buffers. The format is physicochemical. The note with it: simple aqueous solution.
Data set [6] relates to HPV-16 E6 mediated p53 degradation. As to the kind of experiment: in vitro HPV-16 E6 mediated p53 degradation assay. The class given is biochemical. How it is done: In vitro expressed p53 was incubated in rabbit reticulocyte lysate in the presence or absence of in vitro expressed HPV16 E6. p53 levels were reduced in reaction containing E6 proteins (Figure 8 ).
Control reactions (no DNA, p53 alone) were incubated with 1 µL wheat germ extract and 2% DMSO in reaction buffer. In vitro translated p53 and rabbit reticulocyte lysate (RRL, Promega) were added to all reactions except the no DNA control reaction to which wheat germ extract was added instead of p53. Reactions were incubated for 3 hrs at 30°C and stopped by addition of 6X reducing SDS sample buffer and heating at 95°C for 5 min. Each reaction was loaded onto a 10% SDS-PAGE gel and transferred onto PVDF (0.45 µm). p53 and 16E6 were visualized using monoclonal p53 (Pab1801, 1:1000), monoclonal 16E6 (813, Arbor Vita Corporation, 1:4000) antibody and anti-mouse HRP-labeled secondary antibody (1:2000, Sigma-Aldrich).

The mark [7] stands for this setting: in silico leads retested in duplicate at 5 concentrations 5 to 250 µM.

“Also recorded” adds a separate entry of the source. Where two headings read alike, the source gives them in different places.

T1 sequence (P03126 whole entry): as the sequence (P03126 whole entry, the tested form may be a part) above
T3 sequence (P03126 whole entry): as the sequence (P03126 whole entry, the tested form may be a part) above

Consider `COc1cc(O)cc2oc(-c3ccc(O)c(O)c3)cc(=O)c12` [CAF-10], for which, in data set [1], the “activity and potency in E6/E6AP binding assay (in words)” value (shortened to “activity and potency”) was “same potency and activity as luteolin”.
For the compound `O=C(O)c1cccc(-c2ccc3c(=O)cc(-c4ccccc4)oc3c2)c1` [CAF30], in data set [1], half-maximal inhibition (IC50) required 47.3 µM and the Emax is 84%.
For `O=C(O)c1cc(-c2ccc3c(=O)cc(-c4ccccc4)oc3c2)ccc1F` [CAF32], in that order: 48 µM and 75%.
With `O=C(O)c1cccc(-c2ccc3oc(-c4cccc(O)c4)cc(=O)c3c2)c1` [CAF28], the Emax in data set [1] came out at 75%.
Turning to `COc1ccc(CC2c3c(cc(OC)c(O)c3OC)CCN2C)cc1OC` (stereo not shown) [Compound 117], the “non-specific inhibition / specificity in FLAG-E6AP control assay” value (from here on “non-specific inhibition / specificity”) in data set [2] is recorded as “inhibited binding in the FLAG-E6AP assay”. Also, in data set [1] (setting [7]), the IC50 entry is “low micromolar IC50 values”.
On to `CC[C@H](C)[C@H](N)C(=O)N1CCC[C@H]1C(=O)N[C@@H](CCC(=O)O)C(=O)N[C@@H](CO)C(=O)N[C@@H](CO)C(=O)N[C@@H](CCC(=O)O)C(=O)N[C@@H](CC(C)C)C(=O)N[C@H](C(=O)N[C@@H](CC(C)C)C(=O)N[C@@H](CCC(N)=O)C(=O)N[C@@H](CCC(=O)O)C(=O)N[C@@H](CC(C)C)C(=O)N[C@@H](CC(C)C)C(=O)NCC(=O)N[C@@H](CCC(=O)O)C(=O)N[C@@H](CCC(=O)O)C(=O)N[C@@H](CCCNC(=N)N)C(=O)N[C@@H](CCCNC(=N)N)C(=O)O)[C@@H](C)O` [E6AP 18-mer, reference compound], for which the inhibition at 100 µM in data set [1] (read-out: inhibition of binding) came out at 95%.
In the case of `O=C(O)c1cc(-c2ccc3c(=O)cc(-c4ccccc4)oc3c2)ccc1Cl` [CAF31], in data set [1], the midpoint of inhibition, the IC50, lay at 62.2 µM and the Emax amounted to 86%.
`O=c1cc(-c2ccc(O)c(O)c2)oc2cccc(O)c12` [CAF-13]: in data set [1], the “increase of IC50 relative to luteolin” value is 15-30 fold.
For `COc1ccc(-c2ccc3oc(-c4ccccc4)cc(=O)c3c2)c(OC)c1C(=O)O` [CAF29], in data set [1], the IC50 came out at 12.5 µM and the Emax turned out to be 75%.
Consider `CC(=O)Oc1cc(OC(C)=O)c2c(=O)cc(-c3ccc(OC(C)=O)c(OC(C)=O)c3)oc2c1` [Compound 170], for which the “non-specific inhibition / specificity” value in data set [2] was “more selective inhibitor of the E6-E6AP interaction”. Also, the values for the IC50 in data set [1] and in data set [1] (setting [7]) were 44 µM and “low micromolar IC50 values”, respectively. Besides, in data set [1], the “activity and potency” value was “much lower activity and potency than observed with the initial hit”.
Consider `COc1ccc(NC2Oc3cc(O)ccc3C=C2C(=O)Nc2cccc(C)n2)cc1OC` (stereo not shown) [Compound 160], for which the “non-specific inhibition / specificity” value in data set [2] is listed as “inhibited binding in the FLAG-E6AP assay”. Besides, in data set [1] (setting [7]), the concentration for half-maximal inhibition (IC50) result is “low micromolar IC50 values”.
For `O=c1cc(-c2cccc(C(F)(F)F)c2)oc2ccc(-c3nnn[nH]3)cc12` [CAF25], in data set [1], the concentration for half-maximal inhibition (IC50) stood at 1.1 µM and the Emax is 95%.
`O=c1cc(-c2ccccc2)oc2ccc(-c3cccc(-c4nnn[nH]4)c3)cc12` [CAF27]: in data set [1], the half-maximal inhibitory concentration (IC50) amounted to 6.9 µM and the Emax came to 96%.
With `O=c1cc(-c2ccccc2)oc2ccc(-c3nnn[nH]3)cc12` [CAF-26], in data set [2], the “non-specific inhibition / specificity” value is “increased specificity against the FLAG and hDlg control binding reactions”. Besides, the half-inhibitory concentration (IC50) in data set [1] is 5.1 µM; in data set [1] (full 7-point dose response, 0.5 µM to 333 µM, quadruplicate), “low micromolar IC50 values”. For the same compound, the Emax in data set [1] came to 97%. The “specificity against hDlg control binding reaction” value in data set [3] is “increased specificity against the FLAG and hDlg control binding reactions”. The “effect on Tm of MBP-E6” value in data set [4] was “about 1 °C”. For the same compound, the “shift of MBP-E6 Tm” value in data set [4] (at 25, 50 and 150 µM) was approximately 1 °C. Further, the “aqueous solubility (in words)” value in data set [5] is “limited aqueous solubility”.
As for `CC(=O)Oc1cc(OC(C)=O)c2c(=O)c(OC(C)=O)c(-c3ccc(OC(C)=O)c(OC(C)=O)c3)oc2c1` [Compound 168], in data set [2], the “non-specific inhibition / specificity” value is “some non-specific inhibitory activity”. For the same compound, the results for the concentration for half-maximal inhibition (IC50) in data set [1] and in data set [1] (setting [7]) were 44 µM and “low micromolar IC50 values”, respectively.
As for `O=c1cc(-c2ccc(O)cc2)oc2cc(O)cc(O)c12` [CAF-14], the “increase of IC50 relative to luteolin” value in data set [1] is 15-30 fold.
With `COc1cc(OC)c2c(=O)cc(-c3ccc(OC)c(OC)c3)oc2c1` [CAF-8], in data set [1], the “activity and potency” value is on record as “no activity”. In data set [4], the “effect on Tm of MBP-E6” value is reported as “unable to significantly alter MBP-E6 melting temperature; also recorded: no measurable effect”. Also, the “effect on E6 mediated p53 degradation” value in data set [6] (10 µM compound pre-incubated with E6) and in data set [6] (100 µM compound pre-incubated with E6) was “did not alter E6 mediated p53 degradation” throughout.
